Laboratory results from a melting point compilation (Tetko et al.; mined from patent text by program, amines drawn as free bases though some values may be those of a salt).

Point of comparison: `COc1cc(OC)c(-c2csc(N)n2)cc1Cl`, melting point 162 °C. Against it:
- COc1ccc(N=C(NC(=S)NCc2cccnc2)c2ccccc2)cc1 — lower, 142 to 143 °C
- CC1(COc2ccc(OCCNCC(O)COc3ccccc3)cc2)OCCO1 (configuration not stated) — lower, 95 to 97 °C
- O=C(OCc1ccccn1)c1cccc(-n2cnc3cc(-c4ccccc4)ccc32)c1 — lower, 149 to 150 °C
- CCCc1nn(C)c(C(N)=O)c1NC(=O)c1cc([N+](=O)[O-])cnc1OCC — higher, 251 to 253 °C
- CCCCC(=O)OCC1OC(n2cnc3c(OC)nc(N)nc32)C(O)C1O (configuration not stated) — lower, 105 °C
- Cc1c(S(=O)(=O)c2ccc(Cl)cc2)csc1-c1nc(-c2c(F)cccc2F)nn1C — higher, 183 to 185 °C
- CC(C)(C)NS(=O)(=O)c1ccc(S(N)(=O)=O)s1 — lower, 116 to 120 °C
- O=C(Nc1ccc(-n2nc(C(F)(F)F)cc2C(F)(F)F)cc1)c1ccc(C(F)(F)F)cc1C(F)(F)F — higher, 200 to 201 °C
- CCCCCCCc1ncc(CO)[nH]1 — lower, 82 to 84 °C
- O=C(O)c1cc(Cl)cc2c1O[C@@H]1CCCC[C@H]21 (relative stereo) — lower, 132 to 134 °C
- N#Cc1ccc2c(c1)S(=O)(=O)c1ccccc1C=C2 — higher, 229 to 231 °C
- COC(=O)CCC(=O)c1ccccc1OCC(O)CNC(C)(C)C (configuration not stated) — lower, 80 to 81.5 °C
- CN1C(=O)[C@H](NC(=O)CCc2cccc(C#N)c2)N=C(c2ccccc2)c2ccccc21 — lower, 110 to 112 °C
- Cc1cc(C)c(C)c(OCC(=O)O)c1 — lower, 129 to 130 °C
- CCOC(=O)C(C)(OC)C(=O)Nc1cc(Cl)cc(Cl)c1 (configuration not stated) — lower, 72 to 75 °C
- N#Cc1c(Cl)c(F)cc2c(=O)c(C(=O)O)cn(C3CC3)c12 — higher, 281 to 282 °C
- CC(C)(C)OC(=O)NCCNC(=O)c1n[nH]cc1-c1cccc(F)c1 — higher, 175 to 176 °C
- O=C(O)Cc1sc(Nc2ccccc2)nc1-c1ccc(Cl)cc1 — higher, 256 to 257 °C
- CCOP(=O)(Cc1ccc2cc(CP(=O)(OCC)OCC)ccc2c1)OCC — lower, 151 to 153 °C
- COc1cc2c(cc1OC)CN(CCCCc1ccc(NC(=O)c3cnc4ccccc4n3)cc1)CC2 — lower, 144 °C
- NC(=O)CCNC(=O)C1CCCN1C(=O)OCc1ccccc1 (configuration not stated) — lower, 151 to 152 °C
- CCCCCCC1CC(=O)C=C(N)C1 (configuration not stated) — lower, 113 °C
- O=C(Nc1ccc(F)cc1)c1ccccc1 — higher, 167 to 168 °C
- O=C(c1ccc2c(c1)Cc1ccccc1-2)N1Cc2cccn2Cc2ccccc21 — higher, 202 to 204 °C
- CC(C)NCC(O)COc1ccc2c(=O)cc(-c3cc(O)cc(O)c3)oc2c1 (configuration not stated) — lower, 130 °C
- Cc1nc(N2CCN(Cc3ccc(F)cc3)C2=O)sc1C(=O)NCc1ccncc1 — lower, 146 to 149 °C
- CCCCCCCCCCCCn1nnc(CCC(=O)OC)n1 — lower, 39 to 42 °C
- CC(C)(O)[C@H]1CC[C@H](Cc2cn(-c3ccc(F)cc3)c3ncccc3c2=O)CC1 — higher, 208 to 209 °C
- Cc1nccc(N2CCN(C(=O)N3CCN(C(=O)OC(C)(C)C)CC3)CC2)n1 — higher, 212 to 213 °C
- CNC(=O)N(Cc1ccc(C(C)(C)C)cc1)NC(=O)OC(C)(C)C — lower, 124 to 129 °C
- Cn1ncc(NCCN(CCOc2cccc3c2OCCO3)Cc2ccccc2)c(Cl)c1=O — lower, 78 to 80 °C
- O=C1CNCCN1c1cccc([N+](=O)[O-])c1 — lower, 137 to 139 °C
- O=c1ccn(CCO)c(C(O)c2ccccc2F)c1O (configuration not stated) — higher, 177 to 178 °C
- CC(=O)Oc1ccccc1-c1ccc(Cl)nn1 — lower, 131 to 134 °C
- CC(=O)c1cccc(NC(=O)NCC(=O)N(CC(=O)N2CCCc3ccccc32)c2ccccc2)c1 — lower, 130 °C
- C=CCc1cn(C(c2ccccc2)(c2ccccc2)c2ccccc2)c(F)n1 — lower, 136 to 138 °C
- COc1ccc(N2CCN(c3c(C)c(C)c4c(c3C)C(c3ccccc3)C(C)(C)O4)CC2)cc1 (configuration not stated) — lower, 126 to 128 °C
- CN(C)CCCNC(=O)c1ccccc1-c1nnc(CSCCOc2ccccc2)o1 — lower, 60 to 65 °C
- COc1ccc(-c2cc(NC(=O)CCCCBr)n[nH]2)cc1 — lower, 150 to 152 °C
- CC(=O)OC1CCN(C2c3cc4nonc4cc3OC(C)(C)C2O)C(=O)C1 (configuration not stated) — higher, 204 to 206 °C
- CC(=O)c1ccc(C(C)Oc2cccc(C(=O)Nc3ccc(C#N)cc3)c2)cc1 (configuration not stated) — lower, 79 to 81 °C
- CCOC(=O)CCCOc1ccc2c(c1)C(=O)CCC2 — lower, 62 to 63 °C
- CC(=O)Nc1ccc(N2CCN(c3ccncc3)CC2)cc1 — higher, 244 to 247 °C
- CC(N)C(=O)NC(CCC(=O)NC(CC=CCC(=O)O)C(=O)O)C(=O)O (configuration not stated) — lower, 70 °C
- COc1cc(N2CCCN(C[C@H](O)CO)CC2)ccc1Nc1ncc2ccc(-c3ccccc3OC)n2n1 — lower, 93 to 99 °C
- O=C(NCc1ncc(C(F)(F)F)cc1Cl)c1c(Cl)ccnc1Cl — lower, 122 to 124 °C
- COC(=O)c1c2c(c3cc(OC)c(OC)c(OC)c3c1-c1cc(OC)c(OC)c(OC)c1)OCOC2=O — higher, 165 to 167 °C
- COc1ccc(N2CCN(c3c(C)c(C)c4c(c3C)CC(C)(CO)O4)CC2)cc1 (configuration not stated) — lower, 137 to 139 °C
- O=C(O)CCCOc1cccc(CN2CCCCC2)c1 — lower, 73 to 77 °C
- C=CCOc1ccc2ccc(N)nc2n1 — lower, 138 °C
- O=C(O)COc1ccc(C(=O)C=Cc2ccccc2F)c(Cl)c1Cl — higher, 191 to 194 °C
- COC(=O)c1[nH]c2c(C)ccc(C)c2c1C(N)=O — higher, 201 to 202 °C
- CCCCCCCCNC(=O)CP(=O)(O)O — lower, 142 to 143 °C
- COC(=O)c1ccc(CCCCO)cc1 — lower, 95.5 to 96 °C
- O=C(O)CNC(=O)c1cc(-c2ccc3c(c2)OCO3)c2c3c(ccc2c1)OCO3 — higher, 255 to 257 °C
- OC(c1ccccc1)(c1cccs1)C1CCN(CCc2ccccc2)CC1 (configuration not stated) — lower, 143 to 144 °C
- COC(=O)c1cc(-c2ccc(Cl)c(C)c2)n(Cc2ccc(C)cc2)n1 — lower, 98 °C
- [N-]=[N+]=NCC(O)(Cn1cncn1)c1ccc(Cl)cc1Cl (configuration not stated) — lower, 117 to 119 °C
- CCCCCCCCCCCCCCCCCCCCCC(=O)Nc1ccc(NC(=O)NS(=O)(=O)c2ccc3ccccc3c2)cc1 — higher, 179 °C
- COc1cc(Nc2nccc(-c3cc(OC)c(OC)c(OC)c3)n2)cc(OC)c1OC — higher, 187 °C
- CCOc1nc(NCc2ccco2)nc(Nc2ccc3nc(C)[nH]c3c2)n1 — lower, 150 to 152 °C
- O=C(c1ccccc1)c1ccc(F)c([N+](=O)[O-])c1 — lower, 59 °C
- O=Cc1ccc(OCCN2Cc3ccccc3C2=O)cc1 — lower, 134 to 135 °C
- COc1ccc(C=CC(=O)c2c(OC)cc(OC)cc2OC2OC(COC(C)=O)C(OC(C)=O)C(OC(C)=O)C2NC(C)=O)cc1 (configuration not stated) — lower, 108 to 110 °C
- CC(C)(C)OC(=O)c1nc(-c2ccc(Cl)cc2Cl)n(-c2ccc(Cl)cc2)c1C#N — higher, 210 to 212 °C
- Cn1cc(C(=O)C(C)(C)C)c(=O)c(-c2cccc(C(F)(F)F)c2)c1 — lower, 86 to 88 °C
- CC(C(=O)O)c1cccs1 (configuration not stated) — lower, 75 to 75.5 °C
- OCc1c[nH]c(Sc2ccccc2)c1 — lower, 69 to 71 °C
- O=C1c2c(O)cccc2OC12CC2 — lower, 100 to 109 °C
- Cc1nc2c(-c3cccc(N4C[C@@H](C)O[C@@H](C)C4)c3)cnn2c(N)c1-c1cccc(Cl)c1 — higher, 165 to 167 °C
- COC(=O)CCC(=O)c1ccc(-c2ccc(Cl)cc2)o1 — lower, 99 to 100 °C
- CN(C)CCCn1nnc(-c2ccc3c(c2)S(=O)(=O)c2ccccc2C3=O)n1 — lower, 141 to 142 °C
- Cc1cccc2[nH]nnc12 — lower, 145 to 146 °C
- CCC(CC)C(=O)Nc1cc(-c2ccccc2)nc(-c2ccccc2)n1 — lower, 102 °C
- COC(=O)C1CC(C#N)(c2cccc3ccccc23)CCC1=O (configuration not stated) — higher, 166 to 168 °C
- CCOC(=O)C(=NOC)c1noc(C(Cl)(Cl)Cl)n1 — lower, 143 to 146 °C
- O=C(C=Cc1ccccc1)NCc1ccc(C(=O)O)cc1 — higher, 238 to 239 °C
- CCSCC(=C1NCCCS1)[N+](=O)[O-] — lower, 69.5 to 71 °C
- Nc1nc2c(s1)CCN(CCCCCc1ccccc1)CC2 — lower, 102 to 105 °C
- O=C(Cc1ccccn1)N1CCN(C(=O)Oc2ccc(Oc3ccc(C(F)(F)F)cn3)cc2)CC1 — lower, 143 to 146 °C
- COc1cc(/C=C/C=C/C(=O)NCCN2CCC(c3c[nH]c4ccccc34)CC2)ccc1OC(C)=O — lower, 101 to 105 °C
- CN(C)C(=O)Cn1c(-c2ccc(C(F)(F)F)cc2)nc2cccnc21 — higher, 181 to 183 °C
- CCCC(=O)n1nc2c(c1NC)c(=O)n(CCC)c(=O)n2Cc1ccccc1 — lower, 138 to 139 °C
- C=C(C)C=COCC1CCn2c(nc3ccccc32)S1 (configuration not stated) — lower, 56 to 60 °C
- C#CCOc1ccc(C=O)cc1OC — lower, 95 °C
- C#CCN1C(=O)c2cccc3cccc1c23 — higher, 183 to 186 °C
- CCc1cc2c(s1)-n1c(C)nnc1C(CCC(=O)O)N=C2c1ccc(Cl)cc1 (configuration not stated) — higher, 210 to 212 °C
- O=C(NCCCCCC(=O)C(F)(F)F)OCC1c2ccccc2-c2ccccc21 — lower, 83 to 88 °C
- CC(C)C1(C)N=C(c2nc3ccsc3cc2C(=O)O)NC1=O (configuration not stated) — higher, 242 to 244 °C
- CC1=CC(=O)c2nc3n(c2C1=O)CCC3 — not separable, 162 to 164 °C
- Cc1cccc(C(=O)O)c1Nc1ccccc1C(=O)O — higher, 258 to 259 °C
- COc1cc(C2CCCCC2)ccc1CCCC(=O)O — lower, 104 to 105 °C
- O=S1(=O)N=C(NCc2ccco2)Nc2cc(Cl)sc21 — higher, 224 to 225 °C
- Cn1c(=O)oc2cc3c(cc21)OCC31C(=O)Nc2ccccc21 (configuration not stated) — higher, > 250 °C
- Cc1c(C(=O)Nc2ccc(Cl)c([N+](=O)[O-])c2)cnn1-c1ccc(Cl)cc1 — higher, 221 to 225 °C
- COc1cc(CC#N)ccc1OCC#Cc1ccccc1 — lower, 74 to 75 °C
- CCOc1ccc2[nH]c(=O)n(C(C)(C)COC)c2c1 — lower, 149 °C
- Cc1ccc(-c2ccc(C(=O)Nc3ccc4nc(CN5CCCC5)ccc4c3)cn2)cc1 — higher, 207 to 209 °C
- Cc1cc(-n2ccnc2)c2cccc(OCc3c(Cl)ccc(S(=O)(=O)N4CSC[C@H]4C(=O)O)c3Cl)c2n1 — lower, 130 °C
- COC(=O)COc1ccc2c(c1)S(=O)(=O)C=C(c1c(O)c3cc(F)ccc3n(Cc3ccc(F)cc3)c1=O)N2 — higher, 200 to 207 °C
- COc1cc2c(cc1OC)N(C(=O)OCc1ccccc1)C(C)C(=CN)C2=O (configuration not stated) — lower, 143 to 150 °C
